Key:
Format in all cases: toxicity, cell-based
Fibroblast = test: Incucyte cell viability with human fibroblast; settings: 10 µM, compound concentration 10 uM
U2OS = test: Incucyte cell viability with U2OS; settings: human, 10 µM, compound concentration 10 uM
HEK-293T = test: Incucyte cell viability with HEK293T; settings: human, 10 µM, compound concentration 10 uM
Also: unitless GR value; below 1 slowed growth and below 0 cell loss.

Cc1nc2ccc(Oc3ccc(F)cc3)cc2c(=O)n1C[C@H]1CCCN(C(C)C)C1.Cl
Growth Rate (Fibroblast; 0 h, replicate number 1): -1 | Growth Rate (Fibroblast; 6 h, replicate number 1): 0.24 | Growth Rate (Fibroblast; 12 h, replicate number 1): 0.12 | Growth Rate (Fibroblast; 12 h, replicate number 2): 0.34 | Growth Rate (Fibroblast; 18 h, replicate number 1): 0.13 | Growth Rate (Fibroblast; 18 h, replicate number 2): 0.69 | Growth Rate (Fibroblast; 24 h, replicate number 1): 0.18 | Growth Rate (Fibroblast; 24 h, replicate number 2): 0.73 | Growth Rate (U2OS; 0 h, replicate number 1): 0.57 | Growth Rate (U2OS; 0 h, replicate number 2): -0.36 | Growth Rate (U2OS; 6 h, replicate number 1): 0.84 | Growth Rate (U2OS; 24 h, replicate number 1): 0.95 | Growth Rate (HEK-293T; 6 h, replicate number 1): 0.43 | Growth Rate (HEK-293T; 6 h, replicate number 2): 0.87 | Growth Rate (HEK-293T; 12 h, replicate number 1): 0.27 | Growth Rate (HEK-293T; 12 h, replicate number 2): 0.35 | Growth Rate (HEK-293T; 18 h, replicate number 1): 0.16 | Growth Rate (HEK-293T; 18 h, replicate number 2): 0.4 | Growth Rate (HEK-293T; 24 h, replicate number 1): 0.17 | Growth Rate (HEK-293T; 24 h, replicate number 2): 0.23

N[C@@H]1CCCC[C@H]1Oc1ccc2ncc(-c3cc4ccccc4o3)n2n1
Growth Rate (Fibroblast; 0 h, replicate number 1): -1 | Growth Rate (Fibroblast; 6 h, replicate number 1): -0.12 | Growth Rate (Fibroblast; 6 h, replicate number 2): -0.77 | Growth Rate (Fibroblast; 12 h, replicate number 1): -0.57 | Growth Rate (Fibroblast; 12 h, replicate number 2): -0.62 | Growth Rate (Fibroblast; 18 h, replicate number 1): -0.67 | Growth Rate (Fibroblast; 18 h, replicate number 2): -0.65 | Growth Rate (Fibroblast; 24 h, replicate number 1): -0.62 | Growth Rate (Fibroblast; 24 h, replicate number 2): -0.55 | Growth Rate (U2OS; 0 h, replicate number 1): -0.99 | Growth Rate (U2OS; 6 h, replicate number 1): -0.96 | Growth Rate (U2OS; 6 h, replicate number 2): -0.91 | Growth Rate (U2OS; 12 h, replicate number 1): -0.95 | Growth Rate (U2OS; 12 h, replicate number 2): -0.8 | Growth Rate (U2OS; 18 h, replicate number 1): -0.88 | Growth Rate (U2OS; 18 h, replicate number 2): -0.72 | Growth Rate (U2OS; 24 h, replicate number 1): -0.75 | Growth Rate (U2OS; 24 h, replicate number 2): -0.63 | Growth Rate (HEK-293T; 6 h, replicate number 1): -0.98 | Growth Rate (HEK-293T; 6 h, replicate number 2): -0.97 | Growth Rate (HEK-293T; 12 h, replicate number 1): -0.86 | Growth Rate (HEK-293T; 12 h, replicate number 2): -0.77 | Growth Rate (HEK-293T; 18 h, replicate number 1): -0.66 | Growth Rate (HEK-293T; 18 h, replicate number 2): -0.63 | Growth Rate (HEK-293T; 24 h, replicate number 1): -0.53 | Growth Rate (HEK-293T; 24 h, replicate number 2): -0.43

CN(CCCCCCC1=C(c2cc(F)cc(F)c2)CCCc2cc(O)ccc21)CCCCS(=O)(=O)CCCC(F)(F)F
Growth Rate (Fibroblast; 0 h, replicate number 1): -1 | Growth Rate (Fibroblast; 6 h, replicate number 1): -0.99 | Growth Rate (Fibroblast; 6 h, replicate number 2): -1 | Growth Rate (Fibroblast; 12 h, replicate number 1): -0.97 | Growth Rate (Fibroblast; 18 h, replicate number 1): -0.89 | Growth Rate (Fibroblast; 18 h, replicate number 2): -0.88 | Growth Rate (Fibroblast; 24 h, replicate number 1): -0.77 | Growth Rate (Fibroblast; 24 h, replicate number 2): -0.65 | Growth Rate (U2OS; 0 h, replicate number 1): -1 | Growth Rate (U2OS; 0 h, replicate number 2): -0.54 | Growth Rate (U2OS; 6 h, replicate number 1): -0.96 | Growth Rate (U2OS; 6 h, replicate number 2): -0.93 | Growth Rate (U2OS; 12 h, replicate number 1): -0.94 | Growth Rate (U2OS; 12 h, replicate number 2): -0.68 | Growth Rate (U2OS; 18 h, replicate number 1): -0.87 | Growth Rate (U2OS; 18 h, replicate number 2): -0.58 | Growth Rate (U2OS; 24 h, replicate number 1): -0.72 | Growth Rate (U2OS; 24 h, replicate number 2): -0.49 | Growth Rate (HEK-293T; 6 h, replicate number 1): -0.95 | Growth Rate (HEK-293T; 6 h, replicate number 2): -0.98 | Growth Rate (HEK-293T; 12 h, replicate number 1): -0.48 | Growth Rate (HEK-293T; 12 h, replicate number 2): -0.83 | Growth Rate (HEK-293T; 18 h, replicate number 1): -0.16 | Growth Rate (HEK-293T; 18 h, replicate number 2): -0.52 | Growth Rate (HEK-293T; 24 h, replicate number 1): -0.1 | Growth Rate (HEK-293T; 24 h, replicate number 2): -0.38

Cl.O=C(NCCN1CCC2(CC1)C(=O)NCN2c1cccc(F)c1)c1ccc2ccccc2c1
Growth Rate (Fibroblast; 0 h, replicate number 1): -1 | Growth Rate (Fibroblast; 6 h, replicate number 1): -0.03 | Growth Rate (Fibroblast; 6 h, replicate number 2): -0.05 | Growth Rate (Fibroblast; 12 h, replicate number 1): -0.27 | Growth Rate (Fibroblast; 12 h, replicate number 2): -0.26 | Growth Rate (Fibroblast; 18 h, replicate number 1): -0.19 | Growth Rate (Fibroblast; 18 h, replicate number 2): -0.07 | Growth Rate (Fibroblast; 24 h, replicate number 1): -0.27 | Growth Rate (Fibroblast; 24 h, replicate number 2): -0.14 | Growth Rate (U2OS; 0 h, replicate number 1): -0.95 | Growth Rate (U2OS; 0 h, replicate number 2): -0.98 | Growth Rate (U2OS; 6 h, replicate number 1): 0.46 | Growth Rate (U2OS; 6 h, replicate number 2): 0.73 | Growth Rate (U2OS; 12 h, replicate number 1): 0.24 | Growth Rate (U2OS; 12 h, replicate number 2): 0.25 | Growth Rate (U2OS; 18 h, replicate number 1): -0.13 | Growth Rate (U2OS; 18 h, replicate number 2): 0.23 | Growth Rate (U2OS; 24 h, replicate number 1): -0.24 | Growth Rate (U2OS; 24 h, replicate number 2): 0.17 | Growth Rate (HEK-293T; 6 h, replicate number 1): -0.37 | Growth Rate (HEK-293T; 6 h, replicate number 2): -0.93 | Growth Rate (HEK-293T; 12 h, replicate number 1): 0.06 | Growth Rate (HEK-293T; 12 h, replicate number 2): -0.68 | Growth Rate (HEK-293T; 18 h, replicate number 1): 0.22 | Growth Rate (HEK-293T; 18 h, replicate number 2): -0.32 | Growth Rate (HEK-293T; 24 h, replicate number 1): 0.34 | Growth Rate (HEK-293T; 24 h, replicate number 2): -0.14

Cl.O=C(O)CCCN1CCC[C@H]1COc1ccc(Oc2ccc(Cl)cc2)cc1
Growth Rate (Fibroblast; 0 h, replicate number 1): -1 | Growth Rate (Fibroblast; 6 h, replicate number 1): 0.91 | Growth Rate (Fibroblast; 12 h, replicate number 2): 0.93 | Growth Rate (Fibroblast; 18 h, replicate number 1): 0.87 | Growth Rate (U2OS; 6 h, replicate number 1): 0.84 | Growth Rate (U2OS; 24 h, replicate number 1): 0.94 | Growth Rate (HEK-293T; 6 h, replicate number 1): 0.64 | Growth Rate (HEK-293T; 6 h, replicate number 2): -0.09 | Growth Rate (HEK-293T; 12 h, replicate number 1): 0.9 | Growth Rate (HEK-293T; 12 h, replicate number 2): 0.12 | Growth Rate (HEK-293T; 18 h, replicate number 2): 0.37 | Growth Rate (HEK-293T; 24 h, replicate number 1): 0.98 | Growth Rate (HEK-293T; 24 h, replicate number 2): 0.53

CC(C)Oc1ccc(Cc2ccc(NC3=NCCN3)cc2)cc1
Growth Rate (Fibroblast; 0 h, replicate number 1): -1 | Growth Rate (Fibroblast; 0 h, replicate number 2): -0.09 | Growth Rate (Fibroblast; 6 h, replicate number 1): -0.34 | Growth Rate (Fibroblast; 6 h, replicate number 2): 0 | Growth Rate (Fibroblast; 12 h, replicate number 1): -0.06 | Growth Rate (Fibroblast; 12 h, replicate number 2): 0.88 | Growth Rate (Fibroblast; 18 h, replicate number 1): 0.24 | Growth Rate (Fibroblast; 24 h, replicate number 1): 0.26 | Growth Rate (U2OS; 0 h, replicate number 1): 0.6 | Growth Rate (U2OS; 6 h, replicate number 1): 0.1 | Growth Rate (U2OS; 12 h, replicate number 1): 0.64 | Growth Rate (U2OS; 18 h, replicate number 1): 0.59 | Growth Rate (U2OS; 24 h, replicate number 1): 0.58 | Growth Rate (HEK-293T; 6 h, replicate number 1): -0.15 | Growth Rate (HEK-293T; 6 h, replicate number 2): -0.39 | Growth Rate (HEK-293T; 12 h, replicate number 1): 0.09 | Growth Rate (HEK-293T; 12 h, replicate number 2): 0.14 | Growth Rate (HEK-293T; 18 h, replicate number 1): 0.26 | Growth Rate (HEK-293T; 18 h, replicate number 2): 0.42 | Growth Rate (HEK-293T; 24 h, replicate number 1): 0.37 | Growth Rate (HEK-293T; 24 h, replicate number 2): 0.45

Reference: ChEMBL document CHEMBL5303304, “EUbOPEN Chemogenomics Library - IncuCyte” (2023)
